{"source": "paper PMC3678123", "about": "(Bioorganic & medicinal chemistry letters, 2013)", "note": "Entries after “also recorded” stand apart in the source; their conditions may differ.", "data": [{"target": "recombinant human DAAO (Homo sapiens, UniProt P14920)", "sequence (P14920 whole entry)": "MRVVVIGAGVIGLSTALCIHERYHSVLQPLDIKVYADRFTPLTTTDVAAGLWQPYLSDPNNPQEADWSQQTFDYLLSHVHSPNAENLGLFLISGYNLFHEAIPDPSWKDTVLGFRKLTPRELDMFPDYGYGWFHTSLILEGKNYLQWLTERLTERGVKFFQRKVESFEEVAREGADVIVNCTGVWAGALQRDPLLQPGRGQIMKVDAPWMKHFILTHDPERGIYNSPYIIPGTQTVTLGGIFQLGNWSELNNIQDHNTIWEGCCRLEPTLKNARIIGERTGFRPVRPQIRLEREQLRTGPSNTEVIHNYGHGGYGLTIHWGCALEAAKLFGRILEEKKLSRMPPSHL", "experiment": "Inhibition of recombinant human DAAO", "assay_type": "biochemical", "settings": "qualitative statement", "values": [{"compound": "COc1coc(CO)cc1=O", "note": "[6b]", "DAAO inhibitory potency (in words)": "complete loss of potency; also recorded: completely devoid of any inhibitory activity"}, {"compound": "COCc1cc(=O)c(O)co1", "note": "[9a]", "DAAO inhibitory potency (in words)": "significantly less potent than kojic acid"}, {"compound": "CCOCc1cc(=O)c(O)co1", "note": "[9b]", "DAAO inhibitory potency (in words)": "significantly less potent than kojic acid"}, {"compound": "O=c1cc(COc2ccccc2)occ1O", "note": "[9c]", "DAAO inhibitory potency (in words)": "potency comparable or superior to that of kojic acid"}, {"compound": "O=c1cc(COCc2ccccc2)occ1O", "note": "[9j]", "DAAO inhibitory potency (in words)": "dramatic loss of potency"}, {"compound": "O=c1cc(COC2CCCCO2)occ1O", "note": "(stereo not drawn) [9k]", "DAAO inhibitory potency (in words)": "significantly less potent than kojic acid"}, {"compound": "O=c1cc(CCc2ccccc2)occ1O", "note": "[compound 17, 5-hydroxy-2-phenethyl-4H-pyran-4-one]", "DAAO inhibitory potency (in words)": "slightly more potent than the ether counterpart 9c"}, {"compound": "O=c1ccn(CCc2ccccc2)cc1O", "note": "[compound 19, 3-hydroxy-1-phenethyl-4(1H)-pyridinone]", "DAAO inhibitory potency (in words)": "no inhibitory activity"}]}, {"tested_on": "DAAO", "experiment": "not given", "settings": "cited from earlier work", "units": {"IC50": "nM"}, "values": [{"compound": "O=c1oc2ccccc2cc1O", "note": "[2b, 3-hydroxychromen-2-one]", "IC50": 440}, {"compound": "O=C(O)c1ccc[nH]1", "note": "[5a, pyrrole-2-carboxylic acid]", "IC50": "< 10000"}, {"compound": "O=C(O)c1cc[nH]n1", "note": "[5b, 1H-pyrazole-3-carboxylic acid]", "IC50": "< 100000"}, {"compound": "O=C(O)c1cc(CCc2ccccc2)c[nH]1", "note": "[5c]", "IC50": "< 1000"}, {"compound": "O=C(O)c1cc(CCc2ccccc2)[nH]n1", "note": "[5d]", "IC50": "< 1000"}, {"compound": "Oc1noc2cc(Cl)ccc12", "note": "[compound 1, 6-chlorobenzo[d]isoxazol-3-ol]", "IC50": 188}, {"compound": "O=c1[nH]c2c(F)cc(F)cc2n1O", "note": "[compound 3, 4,6-Difluoro-1-hydroxy-1Hbenzo[d]imidazol-2(3H)-one]", "IC50": 80}]}]}
